For 16 molecules, GI50 and TGI results are on record in PubChem BioAssay (NCI).

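Grown in 96-well plates, cells were treated for 48 hours with each compound at five concentrations. Insufficient inhibition: endpoint recorded as highest concentration tested. GI50 is the concentration that inhibits growth by half. TGI denotes the concentration required for complete inhibition of growth.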 A value given as a limit tells only on which side of the number the result lay.

What all share (test): growth of human tumour cells (NCI), 48 h
Test [1] concerns COLO 205 colon.
Test [2] deals with HCT-15 colon.
The test system of test [3] is IGROV1 ovarian.
Test [4] has as its system LOX IMVI melanoma.
The subject of test [5] is MALME-3M melanoma.
Test [6] relates to NCI/ADR-RES ovarian.
The test system of test [7] is OVCAR-8 ovarian.
The test system of test [8] is RPMI-8226 leukemia.
The test system of test [9] is RXF 393 renal.
Test [10] concerns SF-295 CNS.

`Cc1cccc(N=C2c3cc([N+](=O)[O-])ccc3-c3c2cc([N+](=O)[O-])cc3[N+](=O)[O-])c1`: the GI50 is 3.34 µM in test [1]; 2.8 µM in [2]; 5.89 µM in [3]; 1.57 µM in test [4]; 4.82 µM in test [5]; 12.5 µM in test [6]. For the same molecule, the GI50 in [7] is 5.88 µM; in test [8], 2.73 µM; in test [9] it was 2.28 µM; in test [10] it was 25.2 µM. For the same molecule, the TGI in test [1] is 17.1 µM; in test [2] it was 10.7 µM; in test [3], above 100 µM; in test [4], 2.93 µM; in [5] it was 21.2 µM; in [6], above 100 µM. Also, the TGI in [7] was 94.1 µM; in test [8] it was 10.7 µM; in test [9] it was 4.95 µM; in [10], above 100 µM.
On to `O=C(O)c1cccc(CC(Br)C(=O)O)c1` (stereo not given), for which the TGI in test [1], in [2], in [3], in test [4], in test [5] and in test [6] was above 100 µM each time. In addition, the TGI in test [7], in test [8], in [9] and in test [10] was above 100 µM each time.
In the case of `O=C(O)CC1(C(=O)O)CCCCC1`, the TGI in [1], in test [2], in test [3], in [4], in test [5] and in [6] was above 100 µM throughout. The TGI in [7], in [8], in test [9] and in test [10] was above 100 µM throughout.
`O=C(Cn1ccnc1[N+](=O)[O-])NCC(F)(F)C(F)(F)F`: the GI50 in test [1], in [2], in test [3], in test [4], in test [5] and in test [6] was above 100 µM throughout. Further, the GI50 in test [7], in test [8], in test [9] and in test [10] was above 100 µM each time. The TGI in test [1], in test [2], in [3], in [4], in test [5] and in test [6] was above 100 µM each time. Besides, the TGI in test [7], in [8], in test [9] and in [10] was above 100 µM in each case.
For the molecule `CN1CCN(Cc2ccc(NC(=O)c3cncc(C#Cc4c(N)ncc5cc(F)ccc45)c3)cc2C(F)(F)F)CC1`, the GI50 was 0.581 µM in test [1]; 0.631 µM in test [2]; 0.813 µM in [3]; 0.587 µM in [4]; 0.36 µM in test [5]; 1.03 µM in test [6]. Besides, the GI50 in [7] is 1.27 µM; in test [8], 1.09 µM; in test [9], 0.836 µM; in test [10] it was 6.47 µM. The TGI in test [1] amounted to 4.93 µM; in [2], 1.31 µM; in test [3], 3.02 µM; in test [4], 1.26 µM; in test [5], 1.14 µM; in test [6], 2.46 µM. In addition, the TGI in [7] turned out to be 3.57 µM; in [8], 2.83 µM; in test [9], 1.57 µM; in test [10], 14 µM.
`O=C(/C=C\Sc1nccc(C(F)(F)F)n1)c1ccc(Br)cc1`: the GI50 in test [1] is 18.6 µM; in test [2], 20.7 µM; in test [3], 16.8 µM; in [4], 13.7 µM; in test [5], 16.9 µM; in [6], 20.2 µM. Besides, the GI50 in test [7] was 45.9 µM; in test [8] it was 2.24 µM; in test [9], 18.5 µM; in test [10] it was above 100 µM. In addition, the TGI in test [1] was found to be 36.5 µM; in test [2], 70.6 µM; in test [3], 35.8 µM; in [4], 27.2 µM; in test [5], 43.9 µM; in test [6] it was 52.7 µM. Further, the TGI in test [7] is above 100 µM; in [8], 4.63 µM; in test [9] it was 40.9 µM; in test [10], above 100 µM.
Regarding `COc1cc2c(cc1OC)[C@@]1(C)C(=O)c3cc4c(cc3[C@H]1N(C)C2=O)OCO4`, the GI50 in [1] was above 100 µM; in test [2], above 100 µM; in test [3], 33.9 µM; in [4] it was 48.4 µM; in test [5], 75.1 µM; in [6], 59.6 µM. For the same molecule, the GI50 in test [7] is 29.3 µM; in test [8] it was 33.9 µM; in test [9] it was 26.9 µM; in [10] it was 43.3 µM. Moreover, the TGI in [1], in test [2], in [3], in [4], in test [5] and in test [6] was above 100 µM throughout. The TGI in test [7], in [8], in test [9] and in [10] was above 100 µM each time.
`CCNc1nc(N2CC(=O)Nc3cc(OC)ccc32)c2ccccc2n1`: the GI50 was 0.00035 µM in test [1]; 0.000609 µM in test [2]; 0.00184 µM in test [3]; 0.000693 µM in test [4]; 7.57 µM in [5]; 0.000399 µM in test [6]. Besides, the GI50 in test [7] is 0.000945 µM; in test [8], 0.000471 µM; in test [9], 0.001 µM; in [10], 0.00129 µM. The TGI in [1] was 0.00207 µM; in test [2] it was above 100 µM; in test [3], 14.1 µM; in test [4] it was above 100 µM; in test [5], above 100 µM; in test [6], 0.015 µM. Further, the figures for the TGI in test [7], in test [8] and in test [10] were above 100 µM, 24.3 µM and 0.00614 µM, respectively.
Regarding `CCOC(=O)c1c(Cl)c2c(n1Cc1cc(OC)cc(OC)c1)-c1oncc1CCC2`, the GI50 in test [1] was 0.301 µM; in [2], 0.387 µM; in [3], 0.317 µM; in test [4], 0.709 µM; in [5], 0.118 µM; in [6], 0.227 µM. Also, the GI50 in [7] is 0.479 µM; in test [8], 0.383 µM; in test [9], 0.201 µM; in test [10], 0.246 µM. Besides, the TGI was 1.49 µM in test [1]; above 100 µM in test [2]; above 54.8 µM in [3]; above 100 µM in [4]; above 61.6 µM in test [6]; above 100 µM in [7]. Also, the TGI in test [8] was above 100 µM; in [9], 6.03 µM; in [10], 1.8 µM.
Take `COc1cnc2c(c1)C(=O)c1c-2n(CCCN2CCN(C)CC2)c(=O)c2cc(Cl)ccc12`: the GI50 is 1.3 µM in test [1]; 4.08 µM in [2]; 10.4 µM in [3]; 0.779 µM in test [4]; 5.77 µM in test [5]; 0.979 µM in test [6]. The GI50 in test [7] is 3.09 µM; in [8], 13.9 µM; in test [9] it was 1.9 µM; in test [10], 0.674 µM. Also, the TGI in test [1] is above 100 µM; in test [2], 27.9 µM; in test [3], 87.1 µM; in [4], 18.9 µM; in test [5], 19.5 µM; in [6], 24.5 µM. In addition, the TGI is above 100 µM in [7], 45.1 µM in [8], 13.3 µM in [9] and 20.5 µM in test [10].
As to `CO[C@H]1CC[C@@]2(C)C(=CC[C@H]3[C@@H]4C[C@H](O)C[C@@]4(C)CC[C@@H]32)C1`, the GI50 in test [1] is 5.02 µM; in test [2], 5.04 µM; in test [3] it was 6.91 µM; in test [4] it was 6.17 µM; in test [5] it was 5.22 µM; in test [6], 4.17 µM. Besides, the GI50 in test [7] is 5.14 µM; in [8] it was 3.68 µM; in test [9], 2.49 µM; in test [10] it was 2.45 µM. Besides, the TGI in test [1] came out at 16.2 µM; in [2], 23.2 µM; in [3], 26.5 µM; in [4], 24.5 µM; in [5], 19.4 µM; in test [6], 39.9 µM. For the same molecule, the TGI turned out to be 19.2 µM in test [7], 54.2 µM in [8], 6.57 µM in test [9] and 8.02 µM in [10].
As to `COc1ccc(F)cc1C(=O)c1cnc(NC2CCN(S(C)(=O)=O)CC2)nc1N`, the GI50 in [1] was 1.25 µM; in test [2], 2.86 µM; in [3] it was 1.84 µM; in test [4] it was 2.09 µM; in test [5], 3.57 µM; in [6], 6.26 µM. The GI50 in test [7] is 3.95 µM; in test [8], 3.27 µM; in test [9], 2.75 µM; in test [10], 1.68 µM. Further, the TGI in test [1] was 5.22 µM; in test [2], above 20.5 µM; in [3], above 13.6 µM; in test [4], above 25 µM; in test [5], above 16.8 µM; in test [6], above 25 µM. The TGI in [7] was above 21.6 µM; in [8], 13.1 µM; in [9], 6.58 µM; in [10], above 15.5 µM.
Turning to `COc1cc(C(=O)n2nc(N3CCN(C)CC3)c3cc(N)ccc32)cc(OC)c1OC`, the GI50 in test [1] is 15.5 µM; in [2], 3.45 µM; in [3] it was 4.88 µM; in test [4], 4.23 µM; in [5], 5.12 µM; in [6], 4.2 µM. For the same molecule, the GI50 in test [7] is 4.77 µM; in test [8] it was 4.79 µM; in test [9], 3.04 µM; in test [10] it was 3.54 µM. Further, the TGI is 37.3 µM in test [1]; above 100 µM in test [2]; above 100 µM in [3]; 17.1 µM in test [4]; 50.3 µM in test [5]; above 100 µM in test [6]. In addition, the TGI in test [7] is above 100 µM; in test [8], 34.8 µM; in [9], above 100 µM; in test [10] it was 18.2 µM.
`O=C1/C(=C/c2ccc(Cl)cc2)CN(C(=O)C(Cl)Cl)C/C1=C\c1ccc(Cl)cc1`: the GI50 is 0.233 µM in test [1]; 0.0577 µM in [2]; 0.178 µM in test [3]; 0.0321 µM in test [4]; 0.23 µM in test [5]; 0.358 µM in test [6]. Further, the GI50 is 0.22 µM in test [7], 0.0302 µM in test [8], 0.18 µM in test [9] and 0.214 µM in [10]. In addition, the TGI in [1] was 0.756 µM; in test [2], 0.793 µM; in test [3], 0.422 µM; in test [4], 0.121 µM; in test [5], 0.759 µM; in test [6], above 32.9 µM. Besides, the TGI in test [7] came out at 1.44 µM; in [8], 0.169 µM; in test [9], 0.378 µM; in [10], 0.683 µM.
For `Nc1nccc(Nc2ccc(S(N)(=O)=O)cc2)n1`, the TGI in test [1], in [2], in test [3], in test [4], in [5] and in test [6] was above 100 µM in each case. For the same molecule, the TGI in test [7], in test [8], in test [9] and in [10] was above 100 µM throughout.
As to `CN1CCN(Cc2ccc(Nc3ncc(Cl)c(Nc4ccccc4S(=O)(=O)N(C)C)n3)cc2)CC1`, the GI50 in test [1] is 0.0278 µM; in [3], 0.0249 µM; in test [4] it was below 0.0143 µM; in [5], 0.092 µM; in test [6] it was 0.0747 µM; in test [7] it was 0.0738 µM. The GI50 is 0.0103 µM in test [8], 0.033 µM in test [9] and 0.0169 µM in test [10]. The TGI in [1] stood at 0.222 µM; in test [3], 1.63 µM; in test [4], 0.124 µM; in [5], 0.379 µM; in test [6], 1.24 µM; in test [8], 1.24 µM. For the same molecule, the TGI is 0.122 µM in test [9] and above 100 µM in test [10].
